# Assay results as given in patent US3998795A, “(Acyl-D-α-amino acid-gly-gly-tyr-ala)^1 -somatostatin” (American Home Products Corporation, priority 1975, dated 1976).
# Tested on: growth hormone
# Test: In vivo growth hormone release inhibition in Nembutal-treated rats, plasma growth hormone by radioimmunoassay
# Details: rats 200-250 g, Nembutal 50 mg/kg i.p.; after 5 min octadecapeptide 1000 micrograms/kg s.c.; blood sampled 15 min after administration; control 236 ± 30; p<0.01
# Procedure: The in vivo activity of the octadecapeptides of this invention was established with (CH3 CO-D-Ala-Gly-Gly-L-Tyr-L-Ala)^1 -Somatostatin as a representative member of the octadecapeptides of this invention by injecting Nembutal intraperitoneally into rats weighing between 200 and 250 grams in an amount of 50 milligrams per kilogram body weight. After five minutes, the octadecapeptide was administered to the rats, subcutaneously, at a dose of 1000 micrograms per kilogram body weight. The rats blood was sampled 15 minutes after administration of the octadecapeptide and the amount of growth hormone present in the plasma was determined by radioimmunoassay. The octadecapeptide afforded a blood plasma concentration of growth hormone in the test animals of 74 ± 16 nanograms per milliliter as opposed to the concentration of growth hormone in the control animals of 236 ± 30 nanograms per milliliter, at a statistical certainty of p<0.01.
compound,measurement,value
CC(=O)N[C@H](C)C(=O)NCC(=O)NCC(=O)N[C@@H](Cc1ccc(O)cc1)C(=O)N[C@@H](C)C(=O)NCC(=O)N[C@H]1CSSC[C@@H](C(=O)O)NC(=O)[C@H](CO)NC(=O)[C@H]([C@@H](C)O)NC(=O)[C@H](Cc2ccccc2)NC(=O)[C@H]([C@@H](C)O)NC(=O)[C@H](CCCCN)NC(=O)[C@H](Cc2c[nH]c3ccccc23)NC(=O)[C@H](Cc2ccccc2)NC(=O)[C@H](Cc2ccccc2)NC(=O)[C@H](CC(N)=O)NC(=O)[C@H](CCCCN)NC1=O [N-α-Acetyl-D-alanyl-glycyl-glycyl-L-tyrosyl-L-alanyl-glycyl-L-cysteinyl-L-lysyl-L-asparaginyl-L-phenylalanyl-L-phenylalanyl-L-tryptophyl-L-lysyl-L-threonyl-L-phenylalanyl-L-threonyl-L-seryl-L-cysteine (7-18 disulfide) diacetate],blood plasma concentration of growth hormone,74 ± 16 nanograms per milliliter
